Columns and labels:
[1] = tested on: NICD in OE33 and 786-0 cells; assay: Western analysis of NICD levels; type: cell-based, human; conditions: OE33 and 786-0 cell lysates
Description: (§1) The effect of inhibitor treatment on the assembly of the NTC in cells was investigated.
Protein analysis was carried out using conventional SDS-PAGE and transfer techniques. Blots were probed with the indicated antibody (“Ab”), using standard conditions, and detected using enhanced chemiluminescence (“ECL”). The following Ab were used: anti-Notch1 (ab52627, abcam), anti-Notch1^val1744 (4147S, Cell Signaling Technology) and anti-GAPDH (ab9483, Abcam).

[2] = tested on: esophageal adenocarcinoma PDX tumors; assay: Esophageal adenocarcinoma patient-derived xenograft (PDX); type: in vivo, mouse
Description: The effect of the inhibitors of the disclosure on the growth of an established tumor also was investigated using two independent esophageal adenocarcinoma patient-derived xenograft (“PDX”) models. Tumors were established in NSG mice to the size of 250 mm^3 prior to the initiation of treatment. Mice were dosed daily via intraperitoneal (“IP”) injection with either Inhibitor No. 1-134-83 (15 mg/kg) or DAPT (20 mg/kg), and compared to DMSO vehicle control. […] Following 24 days of treatment, tumors were harvested and Notch-target gene transcription was evaluated. […] (FIG. 4) Six-week-old NOD-SCID gamma (“NSG”) mice were purchased from Jackson Laboratories and CD-1 Nude mice were purchased from Charles River Laboratories. For the cell line based xenografts assay, 5×10^6 OE19 cells in 200 μl serum-free culture medium were injected subcutaneously per mouse. The mice in the treatment group were injected with 15 mg/kg of Inhibitor No. 1-134-83 daily, and the mice in the control group were injected with the same volume of vehicle (DMSO). Subcutaneous tumor growth was measured once every 4 days using calipers along with body weight. The experiment was discontinued on day 28. PDX cancer models were established, as described in Zhang et al, Establishment of Patient-Derived Xenograft (PDX) Models of Human Breast Cancer, Current Protocols in Mouse Biology, 3:21-29 (2013), in NSG mice. Briefly, 10 mm^3 pieces of primary EAC29 PDX tumor were transplanted subcutaneously into the flanks of NSG mice using a 13G telescopic needle. When the tumors reached 200 mm^3, the mice were split into two uniform groups for treatment. Compound 1-134-83 (15 mg/kg) and vehicle were administered daily by inraperitoneal (“IP”) injection for 24 days. Tumor growth was monitored every 4 days and tumor volume was measured by the formula: Volume=(S×S×L)/2, where S and L are the short and long dimensions. The xenograft tumors were harvested, weighed and samples were subjected to histological examination and by qPCR.

[3] = tested on: MAML1 and Notch1 occupancy on HES1 promoter in OE33 and 786-0 cells; assay: Chromatin immunoprecipitation (ChIP) on the HES1 locus; type: cell-based, human; conditions: 24 hours
Description: as §1
Cells (8×10^6 OE33 cells or 10×10^6 786-0 cells) were plated onto a 15 cm tissue culture dish a day prior to treatment. Cells were then treated for 24 hours with (N—[N-(3,5-difluorophenacetyl)-L-alanyl]-S-phenylglycine t-butyl ester (“DAPT”, 5 μM), Inhibitor No. 1-134-83 (25 μM), or DMSO vehicle. Following treatment, cells were cross-linked for 10 minutes with 1% formaldehyde. The reaction was then stopped by adding […] glycine. Cells were collected in SDS lysis buffer (1% SDS, 10 mM EDTA, 50 mM Tris-HCl pH 8.0) and sonicated to yield chromatin fragments of approximately 300 to 800 bp (8 minutes at high level for OE33 cells; 5 minutes at medium level for 786-0 cells in BIORUPTOR UCD-200 sonicator). Lysates were divided into equal parts and immunoprecipitated with either α-Notch1 (A301-894A, Bethyl Laboratories) or α-MAML1 (12166s, Cell Signaling Technology) antibody. Protein:DNA immunoprecipitates were then reverse cross-linked at 65° C. in 200 mM NaCl for 4 hours, followed by incubation with RNase A and proteinase K. DNA was then purified using a PCR purification kit (28104,
Qiagen). Immunoprecipitated DNA was then detected by SYBR green qPCR using HES1 specific oligonucleotide primers (forward: 5′CGTGTCTCCTCCTCCCATT3′; reverse: 5′GGGGGATTCCGCTGTTAT3′).

[4] = tested on: Notch-dependent somite formation; assay: Zebrafish somite formation; type: in vivo, D. rerio; conditions: embryos soaked in 40 μM from 8 hPF, scored at 13 hPF
Excerpt: The in vivo effects of the inhibitors of the disclosure also were investigated using D. rerio. Notch signaling plays a role in somite formation in developing vertebrate embryos. Changes in levels of Notch signaling (either increased or decreased) during development of the zebrafish embryo result in disruption of the symmetric, bilaterally formed somites, which can be readily observed. Thus, disruption of somitogenesis in zebrafish represents a convenient dose-sensitive readout for Notch pathway stimulation or inhibition. When 100 pg of mNotch1 was injected in mRNA, defects in somitogenesis in 90% of the embryos resulted (compared to 0% disrupted embryos in the control group) (FIG. 5). […] Disruption of somite formation was not observed, however, when embryos were soaked in vehicle control (DMSO). […] On three separate days, multiple clutches of embryos from two or more breeding pairs of the AB wild type line were combined and incubated at 28.5° C. for 8 hours in E3 medium with 0.1% (w/v) methylene blue. The embryos were then placed into fresh E3 medium with 0.1% (w/v) methylene blue containing 50 μM DMSO, 40 μM compound 1-134-83, or nothing. […] At 13 hours post fertilization, samples were collected and scored for the presence of discrete somite boarders on a Zeiss Stemi 2000-CS scope. Data was analyzed using Fisher's exact test in R3.1.0. […]

SMILES: CCOC(=O)COc1ccc(/C=C2\SC(=S)NC2=O)cc1OC [1-134-83]
- levels of NICD in cells [1]: does not change
- weight loss or visible signs of stress ([2]; NSG mice, 15 mg/kg daily IP): without any significant weight loss or other visible signs of stress
- growth of established tumor ([2]; NSG mice, two PDX models, daily IP, 1-134-83 15 mg/kg, DAPT 20 mg/kg): significantly stunted growth
- decrease in tumor volume by the experimental endpoint ([2]; PDX tumor, versus vehicle): three-fold
- transcription of control gene (TBP2) in tumors ([2]; treated PDX tumors, qPCR): unaffected
- level of Notch target genes (Hes1, HeyL, Notch3) in tumors ([2]; tumors harvested after 24 days of treatment, qPCR): dramatically reduced
- occupancy of MAML1 on the HES1 promoter [3]: decreased the occupancy
- occupancy of NOTCH1 on the HES1 promoter [3]: did not affect
- somite formation in embryos [4]: disrupted somites

Reference: US10501413B2, “Inhibitors of the Notch transcriptional activation complex and methods for use of the same” (UNIVERSITY OF MIAMI, priority 2015, dated 2019)
